According to patent publication US9771330B2, “Pyrimidine compounds for the treatment of cancer” (The University of North Carolina at Chapel Hill, priority 2012, dated 2017):

Target: T1, Mer (Homo sapiens, UniProt Q12866)
T1 sequence (Q12866 21-999): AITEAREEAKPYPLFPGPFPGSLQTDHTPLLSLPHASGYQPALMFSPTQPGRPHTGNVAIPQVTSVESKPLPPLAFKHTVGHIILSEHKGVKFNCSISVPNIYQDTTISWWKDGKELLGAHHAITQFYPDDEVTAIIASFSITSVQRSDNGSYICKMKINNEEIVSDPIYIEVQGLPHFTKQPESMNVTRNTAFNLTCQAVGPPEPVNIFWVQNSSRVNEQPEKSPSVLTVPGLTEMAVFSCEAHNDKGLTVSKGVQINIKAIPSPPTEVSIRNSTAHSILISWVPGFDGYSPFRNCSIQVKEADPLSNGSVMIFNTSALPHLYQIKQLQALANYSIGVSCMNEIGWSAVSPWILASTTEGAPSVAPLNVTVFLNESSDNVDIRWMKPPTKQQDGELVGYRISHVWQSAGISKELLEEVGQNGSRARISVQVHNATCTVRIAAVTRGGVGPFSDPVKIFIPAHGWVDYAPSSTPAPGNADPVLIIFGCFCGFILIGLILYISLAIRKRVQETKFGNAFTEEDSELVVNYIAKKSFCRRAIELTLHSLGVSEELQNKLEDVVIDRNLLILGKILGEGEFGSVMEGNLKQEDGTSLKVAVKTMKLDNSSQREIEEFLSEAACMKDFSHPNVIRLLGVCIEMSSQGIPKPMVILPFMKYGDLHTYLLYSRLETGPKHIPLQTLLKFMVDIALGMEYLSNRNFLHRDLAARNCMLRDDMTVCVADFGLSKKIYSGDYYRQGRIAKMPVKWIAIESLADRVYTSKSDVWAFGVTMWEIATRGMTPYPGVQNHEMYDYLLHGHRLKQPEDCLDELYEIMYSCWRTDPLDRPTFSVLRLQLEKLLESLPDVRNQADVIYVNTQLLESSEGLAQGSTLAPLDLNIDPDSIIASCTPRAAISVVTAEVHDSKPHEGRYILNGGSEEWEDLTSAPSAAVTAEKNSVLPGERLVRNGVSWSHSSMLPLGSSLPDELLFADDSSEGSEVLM
Assay: Mer IC50
Assay type: biochemical
Settings: Table 2, compounds of General Procedure E

Compound: N[C@H]1CCCCNc2nc(ncc2C(=O)NCC2CCOCC2)NCCCCCCNC1=O [UNC2705A]
- IC50: < 10 nM
